Reference: PubChem BioAssay AID2124 (Sanford-Burnham Center for Chemical Genomics, 2009)
Records with an inconclusive call do not appear. Activity calls are given as the source filed them. The rule behind the calls is not given here; tested in MIN6 cells.

Assay: GFP-wavelength compound autofluorescence in cells – imaging, high-content imaging, artefact control, dose response (AID 2124);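 note: cells exposed to compound for 48 hours before fixing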
Settings: cells, GFP-channel autofluorescence, high-content imaging, at 10 µM; for z-score: stronger effect = higher value

SMILES | z-score | cell count
Cc1cc(C)c(C(=O)O)c(CC(C)(C)C(=O)O)c1 | -0.33 (inactive) | 3280 cells
Cc1c(C(=O)O)cccc1-c1ccc(/C=C2/NC(=O)N(c3ccccc3)C2=O)o1 | -0.39 (inactive) | 3120 cells
O=C1S/C(=C/c2ccc(N3CCOCC3)o2)C(=O)N1Cc1c(F)cccc1Cl | 1.3 | 3280 cells
O=S(=O)(Nc1cc2nc3ccccc3nc2n1Cc1ccccc1)c1ccc(Cl)cc1 | 0.09 | 777 cells
O=C(c1cc([N+](=O)[O-])ccc1N1CCCC1)N1CCCC1 | -0.38 (inactive) | 3210 cells
CCCCn1c(SCC(=O)O)nc2ccccc21 | -0.33 (inactive) | 2830 cells
O=C1N/C(=N/Nc2ccccc2)S/C1=C\c1ccccc1 | -0.26 (inactive) | 3090 cells
CCCc1n[nH]c2c1C(=O)C(C(=O)OC)C(C)(C)C2 (stereo not drawn) | -0.39 (inactive) | 3280 cells
CCCCN(C)C1=CC2=CC(=C(C#N)C#N)CCC2CC1 (stereo not drawn) | 11.3 | 3120 cells
Cc1ccc(C2(C(F)(F)F)N=C3Sc4cc(C)ccc4N3C(=O)N2)cc1 (stereo not drawn) | -0.39 (inactive) | 2940 cells
CCN1C(=O)CSc2ccc(C(=O)NCc3ccccc3OC)cc21 | -0.33 (inactive) | 2980 cells
CCCCN1C(=O)C2(NNc3ccccc3O2)c2ccccc21 (stereo not drawn) | -0.31 (inactive) | 2820 cells
COC(=O)c1c(NC(=O)CC2Nc3cc(C)c(C)cc3NC2=O)sc(C)c1C (stereo not drawn) | -0.38 (inactive) | 3120 cells
Cc1cc(C)cc(NC(=O)/C=C/c2ccc([N+](=O)[O-])s2)c1 | 0.02 | 960 cells
O=C1/C(=C/c2ccc(N3CCCC3)cc2)NC(=S)N1C1CC1 | 0.41 | 2770 cells
Cc1cc(/C=C2\SC(=S)NC2=O)c(C)n1C1CC1 | -0.3 (inactive) | 3040 cells
CCc1ccccc1N1C(=O)/C(=C/c2ccc(N3CCN(C)CC3)o2)C(=O)NC1=S | -0.35 (inactive) | 2580 cells
COC(=O)c1ccc(COc2ccc3c(C)c(C)c(=O)oc3c2)o1 | -0.33 (inactive) | 3400 cells
COc1cc2c(cc1NC(=O)CN1CCN(S(=O)(=O)c3ccccc3F)CC1)oc1ccccc12 | -0.33 (inactive) | 3180 cells
N=c1oc2c3c4c(cc2cc1C(=O)Nc1ccccc1)CCCN4CCC3 | 0.18 | 3140 cells
N#Cc1c2c(c(-n3cnc4ccccc43)n3c1nc1ccccc13)CCC2 | -0.25 (inactive) | 3100 cells
Cc1cc(SCCOc2ccccc2)nc(N)n1 | -0.39 (inactive) | 3470 cells
Cc1csc(NC(=O)CN(C)S(=O)(=O)c2cccc3cccnc23)n1 | -0.33 (inactive) | 3250 cells
Cc1nc(NC(=O)COC(=O)CCS(=O)(=O)c2ccccc2Cl)c(Cl)cc1Cl | -0.39 (inactive) | 3210 cells
CCOC(=O)c1ccc(NC(=O)COc2ccc(S(=O)(=O)NC(C)CC)cc2)cc1 (stereo not drawn) | -0.33 (inactive) | 3160 cells
O=C(COc1ccccc1)N1CCN=C1c1ccccc1 | -0.33 (inactive) | 3190 cells
CCCN1C(=O)c2cccc3c(N4CCCCC4)ccc(c23)C1=O | 0.28 | 3300 cells

SMILES | z-score | cell count
O=C1/C(=C/c2ccc(N3CCOCC3)o2)SC(=Nc2ccccc2)N1CCc1c[nH]c2ccccc12 | 2.67 | 192 cells
CNC(=O)c1ccc(-c2sc3nc(N4CCOCC4)c4c(c3c2N)CC(C)(C)OC4)o1 | -0.33 (inactive) | 2290 cells
COc1cccc(S(=O)(=O)NCc2ccc(C(=O)Nc3ccc(Cl)c(Cl)c3)cc2)c1 | -0.33 (inactive) | 2580 cells
COc1ccc(NC(=O)c2sc3nc(-c4cccnc4)ccc3c2N)cc1 | -0.3 (inactive) | 2880 cells
CN1C=CC2=C(C#N)C(N)C(C#N)(C#N)C(c3ccccc3)C2C1 (stereo not drawn) | 0.32 | 2840 cells
COc1ccc(Cl)cc1NC(=O)c1c(-c2ccccc2)noc1C | -0.39 (inactive) | 3300 cells
COC(=O)c1cc(NC(=O)c2ccccc2)c(=O)oc1/C=C/Nc1ccc(Oc2ccccc2)cc1 | 0.11 | 3070 cells
CCS(=O)(=O)c1ccc2oc(SCC(=O)NC3CCCC(C)C3C)nc2c1 (stereo not drawn) | -0.26 (inactive) | 2950 cells
Cc1noc(C)c1CS(=O)(=O)c1ccc(Br)cc1 | -0.26 (inactive) | 2900 cells
COc1ccc(/C(O)=C/c2nc3ccc(C(=O)NCCc4cccc(C)c4)cc3[nH]c2=O)cc1OC | 0.56 | 1180 cells
NC(=O)c1cc2ccc(O)cc2oc1=NCc1ccccc1 | -0.33 (inactive) | 3140 cells
O=C(O)CC12CSc3[nH]c(=O)sc3C1c1ccccc1OC2=O (stereo not drawn) | -0.33 (inactive) | 3020 cells
COc1cccc(/C=N/NC(=O)c2oc3nc(-c4ccccc4)cc(-c4ccco4)c3c2N)c1 | -0.32 (inactive) | 3030 cells
O=C(CCl)Nc1cccc2ncccc12 | -0.38 (inactive) | 2060 cells
CC1CC(=O)C2=C(C1)OC(N)=C(C#N)C2c1coc2ccccc2c1=O (stereo not drawn) | -0.38 (inactive) | 3180 cells
O=c1c2ccccc2c(C=Nc2ccccc2O)c(O)n1-c1nccs1 | -0.35 (inactive) | 2390 cells
CS(=O)(=O)ON=C1CCN(S(=O)(=O)c2ccccc2)CC1 | -0.33 (inactive) | 3400 cells
CN(c1cccc(Cl)c1)S(=O)(=O)c1cccc(C(=O)NC2=NCCS2)c1 | -0.33 (inactive) | 3260 cells
CCN(CC)c1ccc2cc(S(=O)(=O)c3ccc(Cl)cc3)c(=O)oc2c1 | -0.31 (inactive) | 2590 cells
Cn1c(=O)n(C)c2cc(NC(=O)COc3ccc(Cl)cc3)ccc21 | -0.33 (inactive) | 3010 cells
N#C/C(=C/c1ccc(-c2ccc(S(N)(=O)=O)cc2)o1)c1nc2ccccc2s1 | 1.86 | 1680 cells
COc1cc(C)nc(N2CCCC(C(=O)Nc3cccc(Cl)c3C)C2)n1 (stereo not drawn) | -0.38 (inactive) | 3090 cells
CC(C)OC(=O)CN1C(=O)S/C(=C/c2ccc(N3CCCCC3)o2)C1=O | 0.56 | 2120 cells
CC1=CN2C(=N)/C(=C/c3ccc([N+](=O)[O-])o3)C(=O)N=C2S1 | 0.75 | 348 cells
COc1cc(N2CCCC2)c(OC)cc1/C=C(/C#N)c1cccc(Br)c1 | 0.19 | 3340 cells
CCCCCCn1c(O)c(C=Nc2ccccc2N2CCOCC2)c(=O)[nH]c1=S | -0.37 (inactive) | 3050 cells
CC(=O)NC(c1ccc(Cl)cc1)c1c(O)ccc2ccc(O)cc12 (stereo not drawn) | -0.38 (inactive) | 3140 cells

SMILES | z-score | cell count
Cc1[nH]c2ccccc2c1/C=N/Nc1ccc([N+](=O)[O-])cc1 | 0.2 | 1600 cells
CCOC(=O)c1nnn(-c2nonc2N)c1-c1ccc(OCC)cc1 | -0.39 (inactive) | 3520 cells
N#C/C(=C\C1=C(N2CCOCC2)C(=C\c2ccc(Cl)cc2)/CC1)C(=O)Nc1ccccc1F | -0.24 (inactive) | 3010 cells
COc1cc(S(=O)(=O)N2CCOCC2)ccc1NC(=O)COC(=O)C12CC3CC(CC(C3)C1)C2 | -0.39 (inactive) | 3410 cells
COc1cc(N2CCCC2)c(OC)cc1/C=C1/NC(=S)NC1=O | 0.59 | 2940 cells
CCCC(=O)c1c(C)c2ccccc2n1C | -0.38 (inactive) | 3160 cells
CCOC(=O)c1cnn(-c2cc(C)nc3c(-c4ccccc4)cnn23)c1N | -0.39 (inactive) | 3280 cells
CC(=Nc1ccc(C)cc1C)c1sc2ccccc2c1O | -0.3 (inactive) | 2760 cells
CN1CCNC(=O)C1CC(=O)NCCC1=CCCCC1 (stereo not drawn) | -0.38 (inactive) | 3160 cells
CCS(=O)(=O)N1Cc2ccccc2CC1C(=O)OCC(=O)Nc1ccc(C)cc1 (stereo not drawn) | -0.33 (inactive) | 3150 cells
COc1cc2cc(C)c3nnc(SCC(=O)Nc4cc(C)on4)n3c2cc1OC | -0.33 (inactive) | 2840 cells
Oc1c(/C=C/C=C/C=Nc2ccccc2)sc(=S)n1Cc1ccccc1 | -0.33 (inactive) | 2740 cells
O=C(NCc1cn2ccccc2n1)c1ccco1 | -0.33 (inactive) | 3100 cells
CCCCCn1nc(-c2ccccc2)c2nc3ccccc3nc21 | 1.27 | 3200 cells
O=C(NC1(C(F)(F)F)NC(=O)N(c2ccc(F)c(Cl)c2)C1=O)c1ccncc1 (stereo not drawn) | -0.39 (inactive) | 3240 cells
CC1CCN(S(=O)(=O)c2ccc3c(c2)c(=O)c(C(=O)N2CCCCC2)cn3C)CC1 | -0.33 (inactive) | 2850 cells
COc1cccc(NC(=O)Cn2c(-c3cncs3)nc3ccccc32)c1 | -0.39 (inactive) | 3160 cells
CCN1CCc2c(sc(NC(=O)Nc3ccc(Cl)c(Cl)c3)c2C(N)=O)C1 | 8.59 | 1910 cells
N#Cc1nc(N2CCOCC2)nc(N2CCOCC2)n1 | -0.39 (inactive) | 3120 cells
CCc1c(C(=O)NC2CCCCC2)[nH]c(C)c1C(C)=O | -0.25 (inactive) | 3040 cells
CC(=O)Nc1sc(/C(C#N)=C\c2cccc(Cl)c2)nc1-c1ccc(C)cc1 | 1.12 | 3000 cells
Nc1c(C(=O)Nc2nccs2)sc2nc(-c3cccs3)cc(C(F)(F)F)c12 | 0.39 | 2940 cells
Cc1cc(/C=C2\NC(=S)N(C)C2=O)ccc1N1CCCC1 | 0.07 | 2980 cells
Cc1[nH]n(-c2ccc([N+](=O)[O-])cc2)c(=O)c1C=NCCN1CCN(C(=O)c2ccccc2F)CC1 | -0.26 (inactive) | 3100 cells
Cc1ccc(Nc2nc(Cl)c(C=O)s2)cc1Cl | -0.27 (inactive) | 2840 cells
